From patent US12037339B2, “Substituted imidazoles as GLP-1 receptor agonists” (Eccogene Inc., priority 2020, dated 2024)

The molecules below were run against (Homo sapiens, UniProt P43220) (assay: h-GLP-1 activity assay (cAMP HTRF, HEK293 cells with stable expression of human GLP-1)). Conditions: relative EC50, 10 nM human GLP-1 set as 100% response, 30 min at 37° C.
Type: cell-based
Description: Human GLP-1 agonizing activity was detected in HEK293 cells with stable expression of human GLP-1 by Cisbio cAMP Gs dynamic kit (Catalog #62AM4PEC) according to manufacturer's protocol. Briefly, cells were collected and resuspended in assay buffer containing 0.1% BSA and 0.5 mM of IBMX at concentration to 2.5×10^5 cells/mL. Two μL 5× compound solution and 8 μL cell suspension were added to each well of low-volume 384 white assay plate. After 30 min incubation at 37° C., 5 μL cAMP-d2 working solution and 5 μL anti-cAMP antibody-cryptate were added to each well, and incubate at room temperature for 1 hr. Series dilution of cAMP was used as standard. Human GLP-1 (7-37) was used as positive control and 10 nM human GLP-1 was set as 100% response. HTRF signals were read at 665 and 615 nm with EnVision plate reader and calculated cAMP concentration by interpolation to the standard curve. The EC50 value of the tested compounds was calculated by fitting the dose response curve using a 4-parameter non-linear regression routine and relative EC50 was presented in Table 29.

Chain of (Homo sapiens, UniProt P43220) (P43220 24-463): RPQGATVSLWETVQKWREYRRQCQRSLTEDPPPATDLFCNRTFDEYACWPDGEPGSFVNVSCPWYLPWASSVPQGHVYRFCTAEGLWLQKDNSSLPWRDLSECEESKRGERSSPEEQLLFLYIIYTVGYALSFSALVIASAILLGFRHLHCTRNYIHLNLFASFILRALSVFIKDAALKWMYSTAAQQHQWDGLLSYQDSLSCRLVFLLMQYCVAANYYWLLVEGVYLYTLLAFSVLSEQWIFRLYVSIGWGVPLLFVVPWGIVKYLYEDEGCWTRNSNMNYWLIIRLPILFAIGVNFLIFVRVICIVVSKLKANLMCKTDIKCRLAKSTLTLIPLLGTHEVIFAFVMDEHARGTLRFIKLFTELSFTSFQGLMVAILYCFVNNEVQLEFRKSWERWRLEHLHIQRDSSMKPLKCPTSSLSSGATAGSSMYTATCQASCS

Structure (SMILES)	EC50 [nM]
CC1c2c(-n3ccn(-c4ccc5c(cnn5C)c4F)c3=O)c(-c3ccc(F)cc3)nn2CCN1C(=O)c1cn2cc(C3CCOCC3)ccc2c1C1(c2noc(=O)[nH]2)CC1 (racemic) [Compound 23, 3-(1-(2-(3-(3-(4-fluoro-1-methyl-1H-indazol-5-yl)-2-oxo-2,3-dihydro-1H-imidazol-1-yl)-2-(4-fluorophenyl)-4-methyl-4,5,6,7-tetrahydropyrazolo[1,5-a]pyrazine-5-carbonyl)-6-(tetrahydro-2H-pyran-4-yl)indolizin-1-yl)cyclopropyl)-1,2,4-oxadiazol-5(4H)-one]	20 to 100
Cc1cc(-n2nc3c(c2-n2ccn(-c4ccc5c(cnn5C)c4F)c2=O)[C@H](C)N(C(=O)c2cc4cc(C5CCOC(C)(C)C5)ccc4n2-c2cccc(-c4noc(=O)[nH]4)c2)CC3)cc(C)c1F (mixture of isomers) [Compound 30, 3-(3-(5-(2,2-dimethyltetrahydro-2H-pyran-4-yl)-2-((S)-3-(3-(4-fluoro-1-methyl-1H-indazol-5-yl)-2-oxo-2,3-dihydro-1H-imidazol-1-yl)-2-(4-fluoro-3,5-dimethylphenyl)-4-methyl-4,5,6,7-tetrahydro-2H-pyrazolo[4,3-c]pyridine-5-carbonyl)-1H-indol-1-yl)phenyl)-1,2,4-oxadiazol-5(4H)-one]	20 to 100
Cc1cc(-n2nc3c(c2-n2ccn(-c4ccc5c(cnn5C)c4F)c2=O)CN(C(=O)c2cc4cc(C5CCOC(C)(C)C5)ccc4n2Cc2nnc(O)s2)CC3)cc(C)c1F (racemic) [Compound 35, 1-(5-(5-(2,2-dimethyltetrahydro-2H-pyran-4-yl)-1-((5-hydroxy-1,3,4-thiadiazol-2-yl)methyl)-1H-indole-2-carbonyl)-2-(4-fluoro-3,5-dimethylphenyl)-4,5,6,7-tetrahydro-2H-pyrazolo[4,3-c]pyridin-3-yl)-3-(4-fluoro-1-methyl-1H-indazol-5-yl)-1,3-dihydro-2H-imidazol-2-one]	> 100
Cc1cc(-n2nc3c(c2-n2ccn(-c4ccc5c(cnn5C)c4F)c2=O)CN(C(=O)c2cc4cc(C5CCOC(C)(C)C5)ccc4n2Cc2cc(O)no2)CC3)cc(C)c1F (racemic) [Compound 36, 1-(5-(5-(2,2-dimethyltetrahydro-2H-pyran-4-yl)-1-((3-hydroxyisoxazol-5-yl)methyl)-1H-indole-2-carbonyl)-2-(4-fluoro-3,5-dimethylphenyl)-4,5,6,7-tetrahydro-2H-pyrazolo[4,3-c]pyridin-3-yl)-3-(4-fluoro-1-methyl-1H-indazol-5-yl)-1,3-dihydro-2H-imidazol-2-one]	> 100
Cc1cc(-n2nc3c(c2-n2ccn(-c4ccc5c(cnn5C)c4F)c2=O)CN(C(=O)c2cc4cc(C5CCOC(C)(C)C5)ccc4n2Cc2cc(O)ns2)CC3)cc(C)c1F (racemic) [Compound 42, 1-(5-(5-(2,2-dimethyltetrahydro-2H-pyran-4-yl)-1-((3-hydroxyisothiazol-5-yl)methyl)-1H-indole-2-carbonyl)-2-(4-fluoro-3,5-dimethylphenyl)-4,5,6,7-tetrahydro-2H-pyrazolo[4,3-c]pyridin-3-yl)-3-(4-fluoro-1-methyl-1H-indazol-5-yl)-1,3-dihydro-2H-imidazol-2-one]	> 100
Cc1cc(-n2nc3c(c2-n2ccn(-c4ccc5c(cnn5C)c4F)c2=O)[C@H](C)N(C(=O)c2cc4cc(C5CCOC(C)(C)C5)ccc4n2C2(c4nnc(O)s4)CC2)CC3)cc(C)c1F (mixture of isomers) [Compound 47, 1-((4S)-5-(5-(2,2-dimethyltetrahydro-2H-pyran-4-yl)-1-(1-(5-hydroxy-1,3,4-thiadiazol-2-yl)cyclopropyl)-1H-indole-2-carbonyl)-2-(4-fluoro-3,5-dimethylphenyl)-4-methyl-4,5,6,7-tetrahydro-2H-pyrazolo[4,3-c]pyridin-3-yl)-3-(4-fluoro-1-methyl-1H-indazol-5-yl)-1,3-dihydro-2H-imidazol-2-one]	< 20
Cc1cc(-n2nc3c(c2-n2ccn(-c4ccc5c(cnn5C)c4F)c2=O)[C@H](C)N(C(=O)c2cc4cc(C5CCOC(C)(C)C5)ccc4n2C2(c4nc(O)ns4)CC2)CC3)cc(C)c1F (mixture of isomers) [Compound 48, 1-((4S)-5-(5-(2,2-dimethyltetrahydro-2H-pyran-4-yl)-1-(1-(3-hydroxy-1,2,4-thiadiazol-5-yl)cyclopropyl)-1H-indole-2-carbonyl)-2-(4-fluoro-3,5-dimethylphenyl)-4-methyl-4,5,6,7-tetrahydro-2H-pyrazolo[4,3-c]pyridin-3-yl)-3-(4-fluoro-1-methyl-1H-indazol-5-yl)-1,3-dihydro-2H-imidazol-2-one]	< 20
Cc1cc(-n2nc3c(c2-n2ccn(-c4ccc5c(cnn5C)c4F)c2=O)[C@H](C)N(C(=O)c2cc4cc(C5CCOC(C)(C)C5)ccc4n2-c2ccccc2C(=O)O)CC3)cc(C)c1F (mixture of isomers) [Compound 54, 2-(5-(2,2-dimethyltetrahydro-2H-pyran-4-yl)-2-((S)-3-(3-(4-fluoro-1-methyl-1H-indazol-5-yl)-2-oxo-2,3-dihydro-1H-imidazol-1-yl)-2-(4-fluoro-3,5-dimethylphenyl)-4-methyl-4,5,6,7-tetrahydro-2H-pyrazolo[4,3-c]pyridine-5-carbonyl)-1H-indol-1-yl)benzoic acid]	< 20
Cc1cc(-n2nc3c(c2-n2ccn(-c4ccc5c(cnn5C)c4F)c2=O)[C@H](C)N(C(=O)c2cc4cc(C5CCOC(C)(C)C5)ccc4n2C2(CNS(C)(=O)=O)CC2)CC3)cc(C)c1F (mixture of isomers) [Compound 64, N-((1-(5-(2,2-dimethyltetrahydro-2H-pyran-4-yl)-2-((S)-3-(3-(4-fluoro-1-methyl-1H-indazol-5-yl)-2-oxo-2,3-dihydro-1H-imidazol-1-yl)-2-(4-fluoro-3,5-dimethylphenyl)-4-methyl-4,5,6,7-tetrahydro-2H-pyrazolo[4,3-c]pyridine-5-carbonyl)-1H-indol-1-yl)cyclopropyl)methyl)methanesulfonamide]	> 100
C[C@H]1c2c(nn(-c3ccc(F)c(C4CC4)c3)c2-n2ccn(-c3ccc4c(cnn4C)c3F)c2=O)CCN1C(=O)c1nn2cc(C3CCOC(C)(C)C3)cnc2c1C1(c2noc(=O)[nH]2)CC1 (mixture of isomers) [Compound 103, 3-(1-(2-((S)-2-(3-cyclopropyl-4-fluorophenyl)-3-(3-(4-fluoro-1-methyl-1H-indazol-5-yl)-2-oxo-2,3-dihydro-1H-imidazol-1-yl)-4-methyl-4,5,6,7-tetrahydro-2H-pyrazolo[4,3-c]pyridine-5-carbonyl)-6-(2,2-dimethyltetrahydro-2H-pyran-4-yl)pyrazolo[1,5-a]pyrimidin-3-yl)cyclopropyl)-1,2,4-oxadiazol-5(4H)-one]	< 20
Cc1cc(-n2nc3c(c2-n2ccn(-c4ccc5c(cnn5C)c4F)c2=O)[C@H](C)N(C(=O)c2cn4cc([C@@H]5CCOC(C)(C)C5)ccc4c2[C@@]2(c4noc(=O)[nH]4)C[C@@H]2C)CC3)cc(C)c1F (single isomer, unassigned) [Compound 3]	< 20
Cc1cc(-n2nc3c(c2-n2ccn(-c4ccc5c(cnn5C)c4F)c2=O)[C@H](C)N(C(=O)c2cn4cc([C@H]5CCOC(C)(C)C5)ccc4c2[C@@]2(c4noc(=O)[nH]4)C[C@@H]2C)CC3)cc(C)c1F (single isomer, unassigned) [Compound 4]	20 to 100
Cc1cc(-n2nc3c(c2-n2ccn(-c4ccc5c(cnn5C)c4F)c2=O)[C@H](C)N(C(=O)c2cn4cc([C@H]5CCOC(C)(C)C5)ccc4c2[C@]2(c4noc(=O)[nH]4)C[C@@H]2C)CC3)cc(C)c1F (single isomer, unassigned) [Compound 5]	< 20
Cc1cc(-n2nc3c(c2-n2ccn(-c4ccc5c(cnn5C)c4F)c2=O)[C@H](C)N(C(=O)c2cn4cc([C@@H]5CCOC(C)(C)C5)ccc4c2[C@]2(c4noc(=O)[nH]4)C[C@@H]2C)CC3)cc(C)c1F (single isomer, unassigned) [Compound 6]	20 to 100
Cc1cc(-c2ccc3c(c2)cc(C(=O)N2CCn4nc(-c5ccc(F)cc5)c(-n5ccn(-c6ccc7c(cnn7C)c6F)c5=O)c4[C@@H]2C)n3C2(c3noc(=O)[nH]3)CC2)ccn1 (single isomer, unassigned) [Compound 7]	< 20
C[C@H]1c2c(nn(-c3ccc(C(F)(F)F)cc3)c2-n2ccn(-c3ccc4c(cnn4C)c3F)c2=O)CCN1C(=O)c1cn2cc([C@@H]3CCOC(C)(C)C3)ccc2c1C1(c2noc(=O)[nH]2)CC1 (single isomer, unassigned) [Compound 8]	< 20
Cc1cc(-n2nc3c(c2-n2ccn(-c4ccc5c(cnn5C)c4F)c2=O)[C@H](C)N(C(=O)c2cc4cc([C@H]5CCOC(C)(C)C5)ccn4c2C2(c4noc(=O)[nH]4)CC2)CC3)cc(C)c1F (single isomer, unassigned) [Compound 9]	20 to 100
C[C@H]1c2c(nn(-c3ccc(F)cc3)c2-n2ccn(-c3ccc4c(cnn4C)c3F)c2=O)CCN1C(=O)c1cn2cc([C@@H]3CCOC(C)(C)C3)ccc2c1C1(c2noc(=O)[nH]2)CC1 (single isomer, unassigned) [Compound 11]	< 20
C[C@H]1c2c(nn(-c3ccc(F)c(Cl)c3)c2-n2ccn(-c3ccc4c(cnn4C)c3F)c2=O)CCN1C(=O)c1cn2cc([C@@H]3CCOC(C)(C)C3)ccc2c1C1(c2noc(=O)[nH]2)CC1 (single isomer, unassigned) [Compound 12]	< 20
Cc1cc(-n2nc3c(c2-n2ccn(-c4ccc5c(cnn5C)c4F)c2=O)[C@H](C)N(C(=O)c2cn4cc([C@@H]5CCOC(C)(C)C5)ccc4c2C2(c4noc(=O)[nH]4)CC2)CC3)ccc1F (single isomer, unassigned) [Compound 13]	< 20
